Source: ChEMBL document CHEMBL5331072, “Development of potent and selective FAAH inhibitors with improved drug-like properties as potential tools to treat neuroinflammatory conditions” (Eur J Med Chem, 2023)
≈ marks a conversion by molar mass, not a printed value. Calls of active or inactive are those of the source. No cut-off for these calls is given here.

What was measured:
[1] = Chemical stability of the compound at pH 3 measured for 24 hrs by HPLC analysis; format: physicochemical; settings: buffer, read-out: Stability
[2] = Solubility of compound at pH 7.4 measured for 24 hrs; format: physicochemical; settings: buffer
[3] = molecular target: T1, Fatty-acid amide hydrolase 1 (Homo sapiens, UniProt O00519); test: Inhibition of human recombinant FAAH using AMC-AA as substrate preincubated for 30 mins followed by substrate addition and measured after 30 mins by multimode plate reader analysis
T1 sequence (O00519 whole entry): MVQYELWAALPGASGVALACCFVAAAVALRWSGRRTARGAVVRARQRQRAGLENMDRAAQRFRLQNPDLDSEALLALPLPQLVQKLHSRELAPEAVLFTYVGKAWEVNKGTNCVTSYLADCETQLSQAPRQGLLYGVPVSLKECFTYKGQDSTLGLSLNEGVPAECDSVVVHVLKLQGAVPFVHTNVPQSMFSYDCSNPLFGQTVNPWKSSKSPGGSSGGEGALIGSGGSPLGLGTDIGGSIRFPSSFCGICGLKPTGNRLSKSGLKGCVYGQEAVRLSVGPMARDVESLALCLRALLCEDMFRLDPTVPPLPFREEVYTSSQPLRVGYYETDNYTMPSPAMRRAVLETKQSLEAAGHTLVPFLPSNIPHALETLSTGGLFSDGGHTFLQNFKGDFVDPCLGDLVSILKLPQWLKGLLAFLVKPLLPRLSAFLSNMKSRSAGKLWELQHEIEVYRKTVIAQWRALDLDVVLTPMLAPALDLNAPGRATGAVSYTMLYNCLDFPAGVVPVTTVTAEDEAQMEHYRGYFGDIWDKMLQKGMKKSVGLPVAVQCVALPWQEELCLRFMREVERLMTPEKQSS

[4] = Solubility of compound at pH 3 measured for 24 hrs; format: physicochemical; settings: buffer
[5] = Chemical stability of the compound at pH 7.4 measured for 24 hrs by HPLC analysis; format: physicochemical; settings: buffer, read-out: Stability
Monoglyceride lipase = molecular target: T2, Monoglyceride lipase (Homo sapiens, UniProt Q99685); test: Inhibition of human recombinant MAGL using 7-hydroxycoumarinyl arachidonate as substrate preincubated for 30 mins followed by substrate addition and measured after 30 mins by multimode plate reader analysis
T2 sequence (Q99685 whole entry): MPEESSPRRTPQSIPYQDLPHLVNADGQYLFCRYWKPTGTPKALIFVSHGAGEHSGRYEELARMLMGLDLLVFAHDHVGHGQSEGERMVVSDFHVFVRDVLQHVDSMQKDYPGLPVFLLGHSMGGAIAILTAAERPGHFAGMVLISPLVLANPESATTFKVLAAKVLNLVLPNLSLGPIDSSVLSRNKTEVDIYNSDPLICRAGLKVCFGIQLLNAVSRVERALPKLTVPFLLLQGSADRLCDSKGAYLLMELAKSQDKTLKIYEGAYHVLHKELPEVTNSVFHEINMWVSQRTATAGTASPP

[6] = molecular target: T3, Fatty-acid amide hydrolase 1 (Homo sapiens) (UniProt O00519); test: Reversible inhibition of human recombinant FAAH at 10 to 100 nM using AMC-AA as substrate preincubated for 30 mins followed by substrate addition and measured after 30 mins by rapid dilution method; settings: dose 10-100 nM, time 1.0 hrs
T3 sequence (whole entry): T1 sequence (O00519 whole entry)

[7] = Neurotoxicity against Wistar rat Hippocampus assessed as cell survival at 0.3 to 100 nM measured for 96 hrs by densitometric analysis; format: toxicity, tissue-based; settings: 0.1 µM, dose 0.3-100 nM
Hippocampus [8] = test: Neuroprotective activity against Wistar rat Hippocampus assessed as reduction in LPS/IFN-gamma induced PI uptake in CA1 region at 3 to 100 nM measured for 96 hrs; format: functional, tissue-based; settings: dose 3-100 nM
[9] = Cytotoxicity against mouse NIH3T3 cells assessed as inhibition of cell growth measured for 24 hrs by neutral red uptake assay; format: toxicity, cell-based
Hippocampus [10] = test: Neuroprotective activity against Wistar rat Hippocampus assessed as reduction in LPS/IFN-gamma induced PI uptake in CA1 region at 0.3 to 100 nM measured for 96 hrs; format: functional; settings: dose 0.3-100 nM
[11] = Dissociation constant, pKa of the compound; format: physicochemical
[12] = Solubility of compound at pH 3 measured for 12 hrs; format: physicochemical; settings: buffer
[13] = Solubility of compound at pH 7.4 measured for 12 hrs; format: physicochemical; settings: buffer
1321N1 [14] = test: Cytotoxicity against human 1321N1 cells assessed as inhibition of cell growth at 100 nM measured for 24 hrs by MTT assay; format: functional; set-up: scale not given: the % may be the effect or the level left
1321N1 [15] = test: Cytotoxicity against human 1321N1 cells assessed as inhibition of cell growth at 30 uM measured for 24 hrs by MTT assay; format: functional; set-up: scale not given: the % may be the effect or the level left
1321N1 [16] = test: Antiinflammatory activity against human 1321N1 cells assessed as reduction in TBHP-induced ROS production at 10 nM incubated for 24 hrs by CellROX green reagent based flow cytometry assay; format: functional, cell-based
1321N1 [17] = test: Antiinflammatory activity against human 1321N1 cells assessed as reduction in TBHP-induced ROS production at 1 uM incubated for 24 hrs by CellROX green reagent based flow cytometry assay; format: functional, cell-based
1321N1 [18] = test: Cytotoxicity against human 1321N1 cells assessed as inhibition of cell growth at 1 uM measured for 24 hrs by MTT assay; format: functional; set-up: scale not given: the % may be the effect or the level left
1321N1 [19] = test: Cytotoxicity against human 1321N1 cells assessed as inhibition of cell growth at 10 nM measured for 24 hrs by MTT assay; format: functional; set-up: scale not given: the % may be the effect or the level left
Hippocampus [20] = test: Neuroprotective activity against Wistar rat Hippocampus assessed as reduction in LPS/IFN-gamma induced PI uptake in CA1 region at 0.1 to 10 uM measured for 96 hrs; format: functional, tissue-based; settings: dose 0.1-10 µM
1321N1 [21] = test: Cytotoxicity against human 1321N1 cells assessed as inhibition of cell growth at 10 uM measured for 24 hrs by MTT assay; format: functional; set-up: scale not given: the % may be the effect or the level left
Hippocampus [22] = test: Neuroprotective activity against Wistar rat Hippocampus assessed as reduction in LPS/IFN-gamma induced PI uptake in CA1 region measured for 96 hrs; format: functional, tissue-based

| Structure (SMILES) | remaining at 24 h [1] [%] | solubility at 24 h [2] [µM] | IC50 [3] [nM] | solubility at 24 h [4] [µM] | remaining at 24 h [5] [%] | IC50 (Monoglyceride lipase) [nM] | further results |
| --- | --- | --- | --- | --- | --- | --- | --- |
| Cc1cc(C(=O)O)c(-c2cccc(OC(=O)N3CCN(CCCc4ccccc4)CC3)c2)o1 | > 99 | 259 (≈ 116 µg/mL) | 128 | 249 (≈ 112 µg/mL) | 97 | > 10000 |  |
| NC(=O)c1ccn(-c2cccc(OC(=O)NC3CCN(CCc4ccccc4)CC3)c2)c1 |  |  | 315 |  |  | > 10000 |  |
| Cc1cc(C(N)=O)c(-c2cccc(OC(=O)NCCCCCCN3CCN(C)CC3)c2)o1 |  |  | 1040 |  |  | > 10000 |  |
| Cc1cc(C(N)=O)c(-c2cccc(OC(=O)NC3CCN(CCc4ccccc4)CC3)c2)o1 | 96 | 67 (≈ 30 µg/mL) | 188 | 282 (≈ 126 µg/mL) | > 99 | > 10000 |  |
| Cc1cc(C(N)=O)c(-c2cccc(OC(=O)N(C)C3CCN(CCc4ccccc4)CC3)c2)s1 |  |  | 8450 |  |  | > 10000 |  |
| Cc1cc(C(N)=O)c(-c2cccc(OC(=O)N3CCN(CCCc4ccccc4)CC3)c2)s1 |  |  | 15.6 |  |  | > 10000 |  |
| Cc1cc(C(N)=O)c(-c2cccc(OC(=O)N(C)C3CCN(CCc4ccccc4)CC3)c2)o1 |  |  | 6560 |  |  | > 10000 |  |
| NC(=O)c1cn(-c2cccc(OC(=O)N3CCN(CCCc4ccccc4)CC3)c2)nn1 | > 99 | 38 (≈ 16.5 µg/mL) | 47.4 | 298 (≈ 129 µg/mL) | > 99 | 2900 |  |
| Cc1cc(C(=O)O)c(-c2cccc(OC(=O)NCCCCCCc3ccccc3)c2)o1 | < 1 | 172 (≈ 72.5 µg/mL) | 10.5 |  | 92.7 | 2440 |  |
| Cc1cc(C(N)=O)c(-c2cccc(OC(=O)N3CCC(CCCc4ccccc4)CC3)c2)o1 |  |  | 11.7 |  |  | 4120 |  |
| Cc1cc(C(N)=O)c(-c2cccc(OC(=O)NC3CCN(CCc4ccccc4)CC3)c2)s1 |  |  | 194 |  |  | > 10000 |  |
| NC(=O)c1cccc(-c2cccc(OC(=O)NC3CCCCC3)c2)c1 [URB-597] |  |  |  |  |  | 9380 | inhibition [6]: inactive |
| Cc1cc(C(N)=O)c(-c2cccc(OC(=O)NC3CCN(CCCc4ccccc4)CC3)c2)o1 |  |  | 407 |  |  | > 10000 |  |
| Cc1cc(C(N)=O)c(-c2cccc(OC(=O)N3CCC(NCCc4ccccc4)CC3)c2)o1 | > 99 | 206 (≈ 92.2 µg/mL) | 26.3 | 277 (≈ 124 µg/mL) | > 99 | > 10000 | Activity [7]: Non-Toxic; inhibition [6]: Active; Activity (Hippocampus [8]): Active; IC50 at 24 h [9]: 45000 nM; Activity (Hippocampus [10]): Active; pKa [11]: 7.6 |
| O=C(Oc1cccc(-c2nn[nH]n2)c1)N1CCN(CCCc2ccccc2)CC1 | > 99 | 272 (≈ 107 µg/mL) | 253 | 268 (≈ 105 µg/mL) | > 99 | > 10000 |  |
| NC(=O)c1cn(-c2cccc(OC(=O)NCCCCCCc3ccccc3)c2)nn1 | 63 |  | 15.8 |  | 79 | 479 | IC50 at 24 h [9]: 35000 nM |
| CN(C(=O)Oc1cccc(-n2ccc(C(N)=O)c2)c1)C1CCN(CCc2ccccc2)CC1 |  |  | > 10000 |  |  | > 10000 |  |
| Cc1cc(C(N)=O)c(-c2cccc(OC(=O)NCCCCCCc3ccccc3)c2)o1 | 31 |  |  |  | 9 |  | solubility at 12 h [12]: < 1 µM; solubility at 12 h [13]: < 1 µM; IC50 at 24 h [9]: 19200 nM |
| NC(=O)c1ccn(-c2cccc(OC(=O)NCCCCCCc3ccccc3)c2)c1 | 32 |  | 3.72 | 3 (≈ 1.22 µg/mL) | 38 |  |  |
| O=C(NCCCCCCc1ccccc1)Oc1cccc(-c2nn[nH]n2)c1 | < 1 | 108 (≈ 39.5 µg/mL) | 7.54 |  | > 99 | 8400 | Activity (1321N1 [14]): 98.5%; Activity (1321N1 [15]): 97%; Activity [7]: Non-Toxic; Activity (1321N1 [16]): Active; Activity (1321N1 [17]): Active; IC50 at 24 h [9]: 39000 nM; Activity (1321N1 [18]): 98.8%; Activity (1321N1 [19]): 100.8%; Activity (Hippocampus [20]): Active; Activity (1321N1 [21]): 99.8%; Activity (Hippocampus [22]): Dose-Dependent Effect |
| Cc1cc(C(N)=O)c(-c2cccc(OC(=O)N3CCC(NCCCc4ccccc4)CC3)c2)o1 | > 99 | 322 (≈ 149 µg/mL) | 165 | 353 (≈ 163 µg/mL) | > 99 | 9880 |  |
| Cc1cc(C(N)=O)c(-c2cccc(OC(=O)N3CCN(CCCc4ccccc4)CC3)c2)o1 | 98 | < 1 | 8.29 | 168 (≈ 75.2 µg/mL) | > 99 | 5060 | Activity (1321N1 [14]): 97%; Activity (1321N1 [15]): 96%; Activity [7]: Non-Toxic; inhibition [6]: Active; Activity (1321N1 [16]): Active; Activity (1321N1 [17]): Active; IC50 at 24 h [9]: 6400 nM; Activity (1321N1 [18]): 100%; Activity (1321N1 [19]): 99.3%; Activity (Hippocampus [10]): 70%; Activity (1321N1 [21]): 101%; pKa [11]: 8.5; EC50 (Hippocampus [22]): 2.91 nM |
